The test system of data set [1] is Staphylococcus aureus ATCC-11632. In words: Disc diffusion, zone of inhibition.
The subject of data set [2] is Bacillus subtilis ATCC-11774. In words: Disc diffusion, zone of inhibition.
Data set [3] concerns Streptococcus mutans ATCC-25175. The experiment in a line: Disc diffusion, zone of inhibition.
The test system of data set [4] is B. cereus ATCC-10876. The experiment in a line: Disc diffusion, zone of inhibition. Particulars: Bacillus cereus.
Data set [5] deals with Salmonella typhimurium ATCC-13311. The experiment in a line: Disc diffusion, zone of inhibition. It counts as cell-based. The following applies: Salmonella enterica, S. typhimurium, read-out: Zone of inhibition, standard drug. The protocol:
Ciprofloxacin and fluconazole were used as standard antimicrobial drugs at a concentration (10 μg/disc) for bacterial and fungal strains, respectively.
MHA was used for culturing the bacteria from bacterial broth and kept at 37 °C for 24 h. The fungal broth was used to prepare fungal culture in PDB and it was kept at 28 °C for 48 h.

In data set [6] the test system is Allium cepa root tips. The experiment in a line: Allium cepa assay, mitotic index and stages of dividing cells. From the text:
(§1) The frequency of chromosomal aberration was checked following protocol of Babatunde and Bakare[31].

Data set [7] has as its system Allium cepa root tips. In words: Allium cepa assay, chromosomal aberration test. Particulars: 01.00 µL/mL; 72 h.
From the text: as §1

The subject of data set [8] is Allium cepa root. In words: Allium cepa assay, root growth. Particulars: 1 μL/mL.
Data set [9] relates to A. parasiticus. The following applies: cited from earlier work.
In data set [10] the target is Acetylcholinesterase (Homo sapiens, UniProt P22303). The experiment in a line: Acetylcholinesterase inhibitory assay. It counts as biochemical.
Chain of Acetylcholinesterase (P22303 32-614, species assumed): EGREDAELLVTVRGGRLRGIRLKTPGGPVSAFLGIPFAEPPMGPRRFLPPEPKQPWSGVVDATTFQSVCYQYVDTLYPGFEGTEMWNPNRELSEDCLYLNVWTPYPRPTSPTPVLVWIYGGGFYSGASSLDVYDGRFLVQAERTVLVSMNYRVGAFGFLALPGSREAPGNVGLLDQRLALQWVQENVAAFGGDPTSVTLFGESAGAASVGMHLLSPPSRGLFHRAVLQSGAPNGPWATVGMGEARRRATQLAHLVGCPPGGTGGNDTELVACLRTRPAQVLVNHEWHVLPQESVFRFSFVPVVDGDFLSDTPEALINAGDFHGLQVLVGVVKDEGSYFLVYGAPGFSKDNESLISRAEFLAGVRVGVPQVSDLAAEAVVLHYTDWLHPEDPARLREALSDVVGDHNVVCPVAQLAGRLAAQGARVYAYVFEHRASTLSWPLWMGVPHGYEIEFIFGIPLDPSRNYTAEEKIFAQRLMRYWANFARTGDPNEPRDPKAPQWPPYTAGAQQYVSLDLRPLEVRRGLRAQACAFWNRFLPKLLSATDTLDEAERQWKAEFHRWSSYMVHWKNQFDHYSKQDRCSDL
For data set [11], the system named is Bacillus subtilis ATCC-11774. In words: Broth micro dilution MIC. It counts as cell-based. Particulars: ATCC11774, B. subtilis.
Data set [12] deals with Aspergillus fumigatus ATCC-204305. In words: Broth micro dilution MIC. It counts as cell-based. The following applies: ATCC204305, A. fumigatus.
The subject of data set [13] is Streptococcus mutans ATCC-25175. The experiment in a line: Broth micro dilution MIC. It counts as cell-based. The following applies: ATCC25175, S.mutans.
Data set [14] addresses α-Amylase. The experiment in a line: Antidiabetic activity assay (α-amylase inhibitory). It counts as biochemical.
The test system of data set [15] is A. niger ATCC-16885. In words: Disc diffusion, zone of inhibition.
In data set [16] the test system is AChE. The arrangement: method as in PMID 19351555. The following applies: cited from earlier work.
In data set [17] the test system is Staphylococcus aureus ATCC-11632. The experiment in a line: Broth micro dilution MIC. It counts as cell-based. The following applies: ATCC11632, S. aureus.
Data set [18] is described as follows: ABTS assay. It counts as biochemical. The following applies: for ABTS scavenging EC50: analyzed using XLSTAT software.
Data set [19] in a line: Metal chelating activity assay. It counts as biochemical. The following applies: for Metal chelating EC50: analyzed using XLSTAT software.
Data set [20] deals with Allium cepa root. Particulars: 1 μL/mL.
In data set [21] the test system is Candida albicans ATCC-66027. The experiment in a line: Disc diffusion, zone of inhibition.
The nature of data set [22]: DPPH free radical scavenging activity. The following applies: for DPPH scavenging EC50: analyzed using XLSTAT software. It counts as biochemical.
Data set [23] relates to Aspergillus fumigatus ATCC-204305. In words: Disc diffusion, zone of inhibition.
Data set [24] deals with Saccharomyces cerevisiae ATCC-9763. In words: Disc diffusion, zone of inhibition.
Data set [25] concerns the target T1, egg albumin (Gallus gallus, UniProt P01012).
T1 construct: albumin was extracted from a fresh egg collected from local market of Jorhat, India; from tissue; host or cells: fresh egg (egg white), local market
In words: Protein egg albumin denaturation assay. It counts as biochemical.

In data set [26] the test system is BChE. The arrangement: method as in PMID 19351555. The following applies: cited from earlier work.
Details of data set [27]: method as in PMID 23181593. The following applies: cited from earlier work.
On the set-up of data set [28]: method as in PMID 23181593. Particulars: at 100 μg/mL; cited from earlier work.
Where [29] appears, read: analyzed using Graph Pad Prism software.
The mark [30] stands for this setting: analyzed using MS-EXCEL software.
Where [31] appears, read: Aspergillus fumigatus, ATCC204305.

Results on six molecules are retold here after publication PMC9200763 (Scientific Reports, 2022).

Values after ≈ are worked out from the molar mass of the structure shown. Where two headings read alike, the source gives them in different places.

T1 sequence (P01012 whole entry): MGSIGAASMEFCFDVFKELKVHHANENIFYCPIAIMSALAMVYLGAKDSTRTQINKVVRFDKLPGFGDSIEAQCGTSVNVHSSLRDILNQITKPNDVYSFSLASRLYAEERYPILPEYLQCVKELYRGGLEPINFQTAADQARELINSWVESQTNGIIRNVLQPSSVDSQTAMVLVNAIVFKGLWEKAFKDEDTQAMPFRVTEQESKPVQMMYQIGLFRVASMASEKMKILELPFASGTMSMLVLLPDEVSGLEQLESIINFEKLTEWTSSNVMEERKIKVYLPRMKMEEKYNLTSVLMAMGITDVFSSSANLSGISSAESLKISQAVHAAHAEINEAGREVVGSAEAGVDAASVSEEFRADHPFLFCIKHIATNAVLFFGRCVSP

For `O=C(O)c1cn(C2CC2)c2cc(N3CCNCC3)c(F)cc2c1=O` [ciprofloxacin, Ciprofloxacin], the zone of inhibition at 10 µg/disc turned out to be 19 ± 0.017 mm in [1] (ATCC11632, read-out: Zone of inhibition, standard drug); 16 ± 0.015 mm in data set [2] (ATCC11774, read-out: Zone of inhibition, standard drug); 7 ± 0.015 mm in data set [3] (ATCC25175, read-out: Zone of inhibition, standard drug); 15 ± 0.013 mm in data set [4] (ATCC10876, read-out: Zone of inhibition, standard drug); 21 ± 0.015 mm in data set [5].

For the molecule `CCOS(C)(=O)=O` [EMS, ethyl methanesulphonate], in data set [6] (Allium cepa root tips, 1 μL/mL), the “Metaphase, dividing cells” value was 13.27%; the Mitotic index is recorded as 1.96%; the “Prophase, dividing cells” value is listed as 86.73%. Also, in data set [7], the “Chromosomal aberration: Breakage” value was 15, the “Chromosomal aberration: Bridges” value came to 30, the “Chromosomal aberration: Clumped” value is 14 and the “Chromosomal aberration: Multipolarity” value was 21. In data set [7], the “Chromosomal aberration: Stickiness” value was determined as 28 and the Total abberations is on record as 21.60%. Further, in data set [8] (after treatment), the “Root length after treatment ± SD” value is 7.31 ± 0.013 cm. Moreover, the “Root length before treatment ± SD” value in [8] (before treatment) turned out to be 7.24 ± 0.014 cm.

For `C/C=C/c1ccc(OC)cc1` [Anethole standard, anethole], in data set [9], the “Concentration that inhibits completely the growth of A. parasiticus” value is 400 µg/mL. The EC50 in [10] is 208 µM; in data set [25] it was 132 µM. Also, the IC50 in data set [10] (Acetylcholinesterase inhibitory IC50, analyzed using Graph Pad Prism software) was 145 µM; in [10] (Acetylcholinesterase inhibitory IC50, analyzed using MS-EXCEL software), 228 µM; in [25] (Protein denaturation IC50, analyzed using Graph Pad Prism software) it was 1380 µM; in [25] (Protein denaturation IC50, analyzed using MS-EXCEL software), 130 µM. Also, the zone of inhibition at 100 µg/mL in data set [1] (ATCC11632) stood at 8 mm; in [2] (ATCC11774), 8 mm; in data set [3] (ATCC25175), 16 mm. Also, the zone of inhibition at 250 µg/mL in data set [1] (ATCC11632) worked out at 10 mm; in data set [2] (ATCC11774), 11 mm; in data set [15] (Aspergillus niger, ATCC16885), 16 mm; in data set [3] (ATCC25175), 18 mm; in data set [4] (ATCC10876), 13 mm; in [23] (setting [31]) it was 14 mm. The zone of inhibition at 500 µg/mL in [1] (ATCC11632) was 14 mm; in data set [2] (ATCC11774), 13 mm; in data set [15] (Aspergillus niger, ATCC16885), 21 mm; in data set [3] (ATCC25175) it was 23 mm; in [4] (ATCC10876), 16 mm; in [21] (Candida albicans, ATCC66027), 19 mm. Also, the zone of inhibition at 500 µg/mL in [23] (setting [31]) amounted to 18 mm; in data set [24] (Saccharomyces cerevisiae, ATCC9763), 16 mm. The MIC in data set [11] turned out to be 90 mg/L (≈ 607 µM); in data set [12], 65 mg/L (≈ 439 µM); in [13], 15 mg/L (≈ 101 µM); in data set [17], 95 mg/L (≈ 641 µM). The results for the “α-Amylase inhibitory IC50” value in data set [14] (setting [29]) and in [14] (setting [30]) were 13.08 ± 0.016 mg/L and 22.16 ± 0.12 mg/L, respectively. For the same molecule, the “α-Amylase inhibitory EC50” value in data set [14] (analyzed using XLSTAT software) is 21.75 ± 0.008 mg/L. Further, the “AChE inhibitory IC50” value in [16] was 134.70 mg/L. The zone of inhibition at 50 µg/mL in data set [3] (ATCC25175) stood at 12 mm. Also, in [6], the “Genotoxic effect (in words)” value is on record as “no genotoxic effect”. Also, in [6] (Allium cepa, 1 μL/mL), the “Anaphase, dividing cells” value amounted to 13.51%. Further, the “Metaphase, dividing cells” value in data set [6] (Allium cepa, 1 μL/mL) stood at 18.92%. Moreover, the “Prophase, dividing cells” value in [6] (Allium cepa, 1 μL/mL) came to 59.46%. For the same molecule, the “Telophase, dividing cells” value in data set [6] (Allium cepa, 1 μL/mL) was 8.10%. Moreover, the “ABTS scavenging IC50” value in [18] (setting [29]) amounted to 34.9 ± 0.004 mg/L; in data set [18] (setting [30]), 9.26 ± 0.002 mg/L. The “ABTS scavenging EC50” value in data set [18] is 9.48 ± 0.048 mg/L. Besides, the “Metal chelating IC50” value in data set [19] (setting [29]) turned out to be 12.15 ± 0.032 mg/L; in data set [19] (setting [30]) it was 31.02 ± 0.018 mg/L. Also, the “Metal chelating EC50” value in [19] is 29.54 ± 0.032 mg/L. The “Root length before treatment ± SD” value in [20] (0 h) is recorded as 7.71 ± 0.016 cm. The “Root length after treatment ± SD” value in [20] (72 h) stood at 8.36 ± 0.009 cm. Moreover, the “DPPH scavenging IC50” value was found to be 0.58 ± 0.048 mg/L in data set [22] (setting [29]) and 10.94 ± 0.026 mg/L in data set [22] (setting [30]). Besides, the “DPPH scavenging EC50” value in data set [22] was 8.69 ± 0.058 mg/L. Moreover, the “BChE inhibitory IC50” value in [26] is 209.60 mg/L.

For `O=C(O)CN(CCN(CC(=O)O)CC(=O)O)CC(=O)O` [EDTA, ethylenediamminetetracetic acid], the “Metal chelating IC50” value was 12.11 ± 0.002 mg/L in data set [19] (setting [29]) and 29.92 ± 0.002 mg/L in data set [19] (setting [30]). Also, in data set [19], the “Metal chelating EC50” value amounted to 29.33 ± 0.064 mg/L.

Regarding `O=C1O[C@H]([C@@H](O)CO)C(O)=C1O` [Ascorbic acid], the figures for the “ABTS scavenging IC50” value in data set [18] (setting [29]) and in [18] (setting [30]) were 39.31 ± 0.84 mg/L and 17.61 ± 0.012 mg/L, respectively. In addition, in data set [18], the “ABTS scavenging EC50” value was 19.54 ± 0.121 mg/L. Further, the DPPH scavenging activity in [27] (at 1000 μg/mL) was 99.65%. Moreover, in data set [27], the “DPPH IC50” value was 5.15 mg/L. For the same molecule, the Reducing power in data set [28] is given as 0.85. In addition, the figures for the “DPPH scavenging IC50” value in data set [22] (setting [29]) and in data set [22] (setting [30]) were 0.60 ± 0.121 mg/L and 17.27 ± 0.004 mg/L, respectively. Besides, the “DPPH scavenging EC50” value in [22] was 17.55 ± 0.056 mg/L.

Regarding `OC(Cn1cncn1)(Cn1cncn1)c1ccc(F)cc1F` [fluconazole], the “Zone of inhibition, standard drug” value in data set [15] (A. niger, 10 µg/disc) turned out to be 12 ± 0.013 mm; in data set [21] (C. albicans, 10 µg/disc), 20 ± 0.014 mm; in data set [23] (A. fumigatus, 10 µg/disc) it was 16 ± 0.011 mm; in data set [24] (S. cerevisiae, 10 µg/disc) it was 14 ± 0.016 mm. Also, the zone of inhibition at 10 µg/disc in data set [15] (Aspergillus niger, ATCC16885, read-out: Zone of inhibition, standard drug) is 12 mm; in [21] (Candida albicans, ATCC66027, read-out: Zone of inhibition, standard drug), 20 mm; in data set [23] (Aspergillus fumigatus, ATCC204305, read-out: Zone of inhibition, standard drug), 16 mm; in data set [24] (Saccharomyces cerevisiae, ATCC9763, read-out: Zone of inhibition, standard drug) it was 14 mm.
